These are literature values, as cited in patent US10052341B2, “Method for preparing an anthelmintic composition, anthelmintic composition, veterinary treatment method and anthelmintic treatment method” (OURO FINO SAUDE ANIMAL PARTICIPACOES SA, priority 2013, dated 2018).

The conditions of this data set: pH 5.

For the compound `CCC[S+]([O-])c1ccc2[nH]c(NC(=O)OC)nc2c1` (centres unmarked) [albendazole sulfoxide], the Water-solubility was 67 µg/mL.

Turning to `CCCSc1ccc2nc(NC(=O)OC)[nH]c2c1` [albendazole], the Water-solubility is 0.53 µg/mL.
